Values after ≈ are worked out from the molar mass of the structure shown. Read-outs that look alike come from different tables or passages of the source. Where a SMILES comes first, the peptide text is derived from it. Bridges are numbered along the chain shown (N, C = ends).
What was measured:
[1] = test system: 55 strains of clinically isolated MRSA; assay type: cell-based, Staphylococcus aureus
From the text: The MRSAs used for the experiments shown below were isolated as follows. Specimens of urine, sputa and pus of hospitalized patients in Nagoya University, School of Medicine Hospital were smeared and cultured on blood agar medium. Staphylococcus aureus was isolated and identified from the grown colonies. Their sensitivity were examined using BBL test disks containing one μg of oxacillin (BBL Microbiology System Co., Ltd.) and strains showing inhibitory zone of 10 mm or less were classified as MRSA. A total of 55 strains of MRSA Nos. 170, 199, 3-50, 3-53 and so forth were isolated. Their sensitivity were confirmed by an agar plate dilution method using Mueller-Hinton agar medium of BBL (BBL Microbiology System Co., Ltd.) containing 100, 50, 25, 12.5, 6.3, 3.2, 1.6 or 0.8 μg/ml of methicillin (Banyu Pharmaceutical Co., Ltd.).
MRSAs obtained by the preceding method were cultured in L medium (1% bactotrypton, 0.5% yeast extract, 0.5% NaCl, pH 7.2) overnight and diluted 40-fold with a phosphate buffered saline solution (PBS).
Separately, tachyplesin I was diluted by 2-fold method using M9 medium (a synthetic medium added with 1% casamino acid) or T broth (0.5% bactotrypton and 0.5% NaCl) to give concentrations of 200-0.4 μg/ml and poured in a 96 well microplate at 100 μl/well each.
The 40-fold diluted bacterial solution was further diluted 10-fold with the M9 medium or T broth and poured 100 μl each to the above wells and the combined solution was mixed to give final concentration of 100-0.2 μg/ml of tachyplesin I. The bacterial concentration was made approximately 10^6 cfu/well (cfu=colony forming unit).
The resultant mixed solutions of bacterial and tachyplesin I solutions were cultured overnight (18 hrs.) at 37° C. The growth of bacteria was determined by the turbidity of the medium and the minimum concentration required to inhibit their growth was used as the minimum inhibitory concentration (MIC).
MICs of various antimicrobial peptides derived from horseshoe crab against 55 strains of clinically isolated MRSA were determined by a similar method to that shown above.

[2] = test system: artificial vesicles using inner membrane of E. coli; experiment: Action on membrane potential in artificial vesicles in vitro; assay type: biochemical
From the text: The antimicrobial mechanisms of the peptides such as tachyplesins against MRSAs are supposed to be similar to those of against Escherichia coil and Salmonella spp. There is an energy producing mechanism by oxidative phosphorylation in cytoplasmic membrane of bacteria, which couples with membrane potential. The action mechanism against E. coli was modeled in artificial vesicles using inner membrane of E. coli and the action of tachyplesin I was investigated in vitro.

MRSA No. 3-50 strain = assay type: cell-based, Staphylococcus aureus; conditions: for growth: MRSA No. 3-50; for MIC, single administration of the peptide: MRSA; for growth: key: + shows growth; - shows no growth
From the text: Synergistic antimicrobial activities by the combinations of tachyplesin I and β-lactam antibiotics or chloramphenicol antibiotics against above mentioned clinically isolated MRSAs were examined and the results against MRSA No. 3-50 strain are shown in the following Tables.

[3] = against 55 strains of clinically isolated MRSA
[4] = antibiotic 10 μg/ml alone (TAC-I 0 μg/ml)
[5] = antibiotic 20 μg/ml alone (TAC-I 0 μg/ml)

**Q.** Which “MIC” value [1, 3] does the source give for `CC[C@H](C)[C@@H]1NC(=O)CNC(=O)[C@H](CCCNC(=N)N)NC(=O)[C@H](Cc2ccc(O)cc2)NC(=O)[C@@H]2CSSC[C@H](NC1=O)C(=O)N[C@@H](Cc1ccc(O)cc1)C(=O)N[C@@H](CCCNC(=N)N)C(=O)N[C@@H](CCCCN)C(=O)N[C@H](C(=O)N[C@@H](CCCNC(=N)N)C(N)=O)CSSC[C@H](NC(=O)[C@H](Cc1c[nH]c3ccccc13)NC(=O)[C@@H](N)CCCNC(=N)N)C(=O)N[C@@H](Cc1ccccc1)C(=O)N[C@@H](CCCNC(=N)N)C(=O)N[C@@H](C(C)C)C(=O)N2` [Tachyplesin II] (H-RWCFRVCYRGICYRKCR-NH2; disulfide 3-16, 7-12; N-terminus and C-terminus assumed) here?
**A.** 3.2 µg/mL (≈ 1.41 µM)

**Q.** Which results are given for `CC[C@H](C)[C@@H]1NC(=O)CNC(=O)[C@H](CCCNC(=N)N)NC(=O)[C@H](Cc2ccc(O)cc2)NC(=O)[C@@H]2CSSC[C@H](NC1=O)C(=O)N[C@@H](Cc1ccc(O)cc1)C(=O)N[C@@H](CCCNC(=N)N)C(=O)N[C@@H](CCCNC(=N)N)C(=O)N[C@H](C(=O)N[C@@H](CCCNC(=N)N)C(N)=O)CSSC[C@H](NC(=O)[C@H](Cc1c[nH]c3ccccc13)NC(=O)[C@@H](N)CCCCN)C(=O)N[C@@H](Cc1ccccc1)C(=O)N[C@@H](CCCNC(=N)N)C(=O)N[C@@H](C(C)C)C(=O)N2` [Tachyplesin I] (H-KWCFRVCYRGICYRRCR-NH2; disulfide 3-16, 7-12; N-terminus and C-terminus assumed)?
**A.** effect on membrane potential generated in the cytoplasmic membrane [2]: depolarized the membrane potential; MIC ([1]; 47 strains (85% of total 55 MRSA strains)): 6.3 µg/mL (≈ 2.78 µM); MIC ([1]; one strain (2% of total 55 MRSA strains)): 12.5 µg/mL (≈ 5.52 µM); MIC ([1]; seven strains (13% of total 55 MRSA strains)): 3.2 µg/mL (≈ 1.41 µM); growth (MRSA No. 3-50 strain; TAC-I 0.4 μg/ml alone (antibiotic 0 μg/ml)): +; growth (MRSA No. 3-50 strain; TAC-I 0.8 μg/ml alone (antibiotic 0 μg/ml)): +; growth (MRSA No. 3-50 strain; TAC-I 1.6 μg/ml alone (antibiotic 0 μg/ml)): +; MIC, single administration of the peptide (MRSA No. 3-50 strain): 3.2 µg/mL

**Q.** For `CC1(C)S[C@@H]2[C@H](NC(=O)[C@H](N)c3ccccc3)C(=O)N2[C@H]1C(=O)O` [ABPC, Ampicillin], which growth (MRSA No. 3-50 strain; [4]) is on record?
**A.** +

**Q.** What about the growth (MRSA No. 3-50 strain; [5]) of the same compound?
**A.** +

**Q.** Which results are given for `CC(C)[C@@H]1NC(=O)[C@H](CCCNC(=N)N)NC(=O)[C@H](Cc2ccccc2)NC(=O)[C@@H](NC(=O)[C@H](Cc2c[nH]c3ccccc23)NC(=O)[C@H](CCCNC(=N)N)NC(=O)[C@@H](N)CCCNC(=N)N)CSSC[C@@H](C(=O)N[C@@H](CCCNC(=N)N)C(N)=O)NC(=O)[C@H](CCCCN)NC(=O)[C@H](CCCNC(=N)N)NC(=O)[C@H](Cc2ccc(O)cc2)NC(=O)[C@@H]2CSSC[C@H](NC1=O)C(=O)N[C@@H](Cc1ccc(O)cc1)C(=O)N[C@@H](CCCCN)C(=O)NCC(=O)N[C@@H](Cc1ccccc1)C(=O)N2` [Polyphemusin II] (H-RRWCFRVCYKGFCYRKCR-NH2; disulfide 4-17, 8-13)?
**A.** MIC [1, 3]: 6.3 µg/mL (≈ 2.6 µM); MIC, single administration of the peptide (MRSA No. 3-50 strain): 6.3 µg/mL

**Q.** Which growth (MRSA No. 3-50 strain; [4]) does the source give for `Cc1nnc(SCC2=C(C(=O)O)N3C(=O)[C@@H](NC(=O)Cn4cnnn4)[C@H]3SC2)s1` [CEZ, Cefazolin] here?
**A.** +

**Q.** What about the growth (MRSA No. 3-50 strain; [5]) of the same compound?
**A.** +

**Q.** What about the growth (MRSA No. 3-50 strain; antibiotic 40 μg/ml alone (TAC-I 0 μg/ml)) of the same compound?
**A.** -

**Q.** What does the source list for `O=C(N[C@H](CO)[C@H](O)c1ccc([N+](=O)[O-])cc1)C(Cl)Cl` [CP, Chloramphenicol]?
**A.** growth (MRSA No. 3-50 strain; antibiotic 5 μg/ml alone (TAC-I 0 μg/ml)): +; growth (MRSA No. 3-50 strain; [4]): +; growth (MRSA No. 3-50 strain; [5]): +
